# Assay results published in article PMC2759517 (PLoS ONE, 2009).
# Test system: PA-HA from several FluA strains
# Type: binding, influenza A virus
smiles,measurement,value
CC[C@H](C)[C@H](NC(=O)[C@H](C)NC(=O)[C@H](CC(N)=O)NC(=O)[C@H](CCC(N)=O)NC(=O)[C@H](C)NC(=O)[C@@H]1CCCN1C(=O)[C@@H](NC(=O)[C@H](CCCCN)NC(=O)[C@H](CC(C)C)NC(=O)[C@H](Cc1ccccc1)NC(=O)[C@H](CC(C)C)NC(=O)[C@H](CC(C)C)NC(=O)[C@@H](NC(=O)[C@@H]1CCCN1C(=O)[C@H](CC(N)=O)NC(=O)[C@@H](NC(=O)[C@H](CC(=O)O)NC(=O)[C@@H](N)CCSC)C(C)C)[C@@H](C)O)C(C)C)C(=O)N[C@@H](CO)C(=O)N[C@H](C(=O)N[C@H](C(=O)N[C@@H](Cc1ccccc1)C(=O)N1CCC[C@H]1C(=O)N[C@@H](Cc1ccc(O)cc1)C(=O)N[C@H](C(N)=O)[C@@H](C)O)[C@@H](C)O)[C@@H](C)O [PB1_1–25A],Binding of FluA PA-HA to immobilized peptide,bound
